Laboratory results: patent US20100137266A1, “TREATMENT OF INSULIN RESISTANCE AND DISORDERS ASSOCIATED THEREWITH” (UNIVERSITETET I OSLO, priority 2006, published 2010)

Experiments:
human myotubes [1] = assay: Lipogenesis and lipid distribution: acetate incorporation into FFA, DAG and TAG in myotubes; assay type: cell-based; conditions: compared to control myotubes; for FFA synthesis from labeled acetate, increase / level of TAG from labeled acetate: 1 μM T0901317 or 10 μM 22-HC for 4 days; for level of DAG from labeled acetate: 1 μM T0901317 or 10 μM 22-R-HC for 4 days
Protocol: Human myoblasts were differentiated and treated with LXR ligands as described in FIG. 3. The cells were then incubated with [1-^14C]acetate (2 μCi/ml, 0.1 mM) for 4 h before levels of free fatty acids (FFA), diacylglycerol (DAG) and triacylgycerol (TAG) were determined. Results present means±SEM (n=5; independent muscle cell donors). **p<0.05 vs all other treatments, ^#p<0.05 vs T0901317. Human skeletal muscle cell cultures. […] The biopsies were obtained with informed consent and by approval of the National Committee for Research Ethics, Oslo, Norway. Muscle cell cultures free of fibroblasts were established by the method of Henry et al. (Diabetes, 44, 936-946, 1995), with minor modifications. Briefly, muscle tissue was dissected in Ham's F-10 media at 4° C., dissociated by three successive treatments with 0.05% trypsin/EDTA, and satellite cells were re-suspended in SkGM with 2% FCS and no added insulin. The cells were grown on culture wells coated with ECM gel (Apmis, 109, 726-734, 2001). At about 80% confluence, fusion of myoblasts into multinucleated myotubes was achieved by growth in DMEM with 2% FCS. All cells used were at passage 4 to 6. After 2 days in DMEM the cells were exposed to vehicle (0.1% DMSO), 1 μM T0901317, 10 μ[…]-hydroxycholesterol (22-R-HC) or 10 μ[…]-hydroxycholesterol (22-S-HC) for 4 days. Lipogenesis and lipid distribution. Myotubes were exposed to DMEM supplemented with [1-^14C]acetic acid (2 μCi/ml, 0.1 mM) for 4 h to study lipogenesis and acetate incorporation into TAG and diacylglycerol (DAG). Myotubes were harvested and analyzed as described above (Palmitate uptake and lipid distribution).

human myotubes [2] = assay: Glucose uptake (2-deoxy-D-glucose) in myotubes; assay type: cell-based; conditions: for basal glucose uptake, increase: myotubes from young, healthy subjects, exposure for 4 days, 1 μmol/l T0901317 or 10 μmol/l 22-HC
Description: FIG. 7. Glucose transport is increased in human myotubes after chronic 22-S-HC treatment. Human myoblasts were allowed to differentiate for 2 days, and then exposed to 1 μmol/1 T0901317, 10 μmol/[…]) or 1, 2, 5 and 10 μmol/1 22-S-HC(S-HC) for 4 days. […] (A) Present means for glucose uptake±SEM (n=4). Basal level for control are 1.20±0.24 nmol/mg cell protein. (B) A representative dose-response curve for glucose uptake after 1, 2, 5 and 10 μmol/l 22-S-HC treatment (n=3). (C) Total RNA were reversely transcribed and analyzed by Real-Time RT-PCR. Results are normalized to levels of 36B4 and present means±SEM (n=4-6). Relative expressions of GLUT1, GLUT3, GLUT4, and hexokinase (HK)II, ^ap<0.05 vs control, ^dp<0.05 vs T0901317. Glucose Uptake. Skeletal biopsies were taken from M.vastus lateralis of healthy human donors and human myoblasts were allowed to differentiate for 4 days. On day 4, myotubes were exposed to T0901317 or 22-R-HC or 22-S-HC for another 4 days. […] Cells were solubilized by addition of 500 μl 0.1 mol/l NaOH. An aliquot (50 μl) was removed for protein determination (Bradford 1976) 300 μl was counted by liquid scintillation ([…] and Beck-Nielsen 2004).

SMILES	FFA synthesis from labeled acetate, increase (human myotubes [1])	level of TAG from labeled acetate (human myotubes [1])	level of DAG from labeled acetate (human myotubes [1])	basal glucose uptake, increase (human myotubes [2])	glucose uptake after pre-treatment of myotubes (summary statement) (human myotubes [2])	reduction for DAG from labeled acetate (human myotubes [1]; 10 μM for 4 days)	basal glucose uptake, dose response (human myotubes [2]; 0, 1.0, 2.0, 5.0 and 10 μmol/l for 4 days)
O=S(=O)(c1ccccc1)N(CC(F)(F)F)c1ccc(C(O)(C(F)(F)F)C(F)(F)F)cc1 [Example T0901317]	2 fold	increased TAG	increased levels of DAG	no effect	only a slight or no significant effect		
CC(C)CC[C@H](O)[C@@H](C)[C@H]1CC[C@H]2[C@@H]3CC=C4C[C@@H](O)CC[C@]4(C)[C@H]3CC[C@]12C [Example 22-S-HC, 22-S-hydroxycholesterol]	only tended to increase FFA synthesis slightly	tendency towards reduced TAG		2 fold	marked stimulation	~50%	increased in a dose—dependent manner
CC(C)CC[C@@H](O)[C@@H](C)[C@H]1CC[C@H]2[C@@H]3CC=C4C[C@@H](O)CC[C@]4(C)[C@H]3CC[C@]12C [Example 22-R-HC, 22-R-hydroxycholesterol]	3 fold	slight increase	did not change	tended to increase	only a slight or no significant effect		
